The source of these data is patent US20240325544A1, “CATIONIC LIPID FOR COVALENT MODIFICATION OF PEPTIDES” (PharmalN Corporation, priority 2023, published 2024).

Bridge positions count the residues as written; N and C are the ends. Square brackets hold non-standard residues; d marks the D form. Ends that are not written are not given here. * marks the point of attachment. Palmitoyl = CCCCCCCCCCCCCCCC(=O)*; Dap = NC[C@H](N)C(=O)O; AEEA = NCCOCCOCC(=O)O A value given as a limit tells only on which side of the number the result lay.

Series [1] can be described thus: Clinically observable adverse effects of cationic alkyl moieties after subcutaneous bolus in rats (Table 1). The class given is in vivo, rat. The note with it: male, Sprague-Dawley, rat, in vivo, sc, tested at 3.0, 5.0 or 10 μmol/kg, lethargy is considered maximum tolerated bolus dose, read-out: Lethargy* in n = 3. Summed up:
(§1)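 Rats given subcutaneous bolus of cationic alkyl modifier in sterile water pH 4.5-5, starting 5.0 μmol/kg, raised to 10 μmol/kg if no swelling or lowered to 3.0 μmol/kg if swelling, 1-week wash-out. Monitored for lethargy, ataxia, swelling, discoloration closely for 4 h, then hourly.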

The subject of series [2] is Sprague Dawley rats. The description is as above. In kind it is in vivo, rat. The note with it: tested at 3.0, 5.0 or 10 μmol/kg. Summed up:
as §1

The subject of series [3] is MC38 colon cancer cells. The experiment in a line: Subcutaneous mouse model of colon cancer using MC38 cells (FIG. 12). The class given is in vivo, mice. As to conditions: combination with anti-tigit Ab 5 mg/kg IP twice a week, 2 cycles. The procedure: FIGS. 12A-12B. […] Error bars represent standard error of the mean. FIG. 12A) A diagram of the dose schedule for administration of immune checkpoint inhibitor (anti-tigit Ab) and SEQ ID NO: 31. FIG. 12 B) Tumor growth kinetics of 6-week-old male C57BL/6J mice (n=8-9 per group) that were subcutaneously inoculated with MC38 colon cancer cells (1,000,000 cells/mouse) in right flank. Starting from Day 4 post-inoculation, anti-tigit Ab was administered intraperitoneally at 5 mg/kg twice a week for 2 cycles; SEQ ID NO: 31 was administered subcutaneously at a bolus dose of 0.3 mg/kg (0.1 μmol/kg) once daily for 5 days (5 days on, 2 days off) for 3 cycles; or a combination of anti-tigit Ab (5 mg/kg IP twice a week; 2 cycles) and SEQ ID NO: 31 (0.3 mg/kg SC once a day for 5 days on and 2 days off; 3 cycles). The control group, which received only buffer, was dosed in the same manner as SEQ ID NO: 31 to establish the baseline tumor growth kinetics. […]
Animal care and treatment: Male C57BL/6J mice (6 weeks-old) were purchased from Kyudo (Saga, Japan) and maintained under a 12-hour light/12-hour dark cycle with free access to water and standard mouse diet (MF diet; Oriental Yeast Co., Ltd, Tokyo Japan). […] Tumor sizes were measured using calipers on Days 4, 7, 14, and Day 22 post-inoculation. […]

The target in series [4] is T1, Recombinant human NPRB extracellular domain - human IgG1 Fc fusion (NPRB-Fc) (human, UniProt P20594 23-458).
T1 construct: extracellular domain; Used at 50 nM in the fluorescence polarization assay; R1-T433 counts on the mature protein; also called natriuretic peptide receptor B; not shown: Human IgG1 heavy chain, amino acids E216-G446 (IMGT.org, EU numbering), Accn; P01857.2
T1 sequence (looked up): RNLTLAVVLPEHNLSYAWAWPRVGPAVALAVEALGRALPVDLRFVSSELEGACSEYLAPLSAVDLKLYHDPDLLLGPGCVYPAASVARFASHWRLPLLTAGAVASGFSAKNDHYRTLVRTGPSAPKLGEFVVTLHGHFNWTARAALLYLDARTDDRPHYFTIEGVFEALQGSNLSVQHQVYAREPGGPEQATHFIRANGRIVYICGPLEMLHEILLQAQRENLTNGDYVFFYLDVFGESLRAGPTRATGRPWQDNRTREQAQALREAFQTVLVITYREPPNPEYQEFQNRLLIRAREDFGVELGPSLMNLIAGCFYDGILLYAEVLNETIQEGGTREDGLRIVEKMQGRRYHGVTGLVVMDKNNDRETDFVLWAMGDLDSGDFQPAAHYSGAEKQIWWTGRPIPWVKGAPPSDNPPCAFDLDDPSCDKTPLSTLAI
The experiment in a line: Fluorescence polarization competition: 150 nM SEQ ID NO: 31 against 5 nM CNP-F* on 50 nM human NPRB. The procedure: (§2) In the presence of [SEQ ID.
(§3) Next, 1-L volume of SEQ ID. […] The plate was incubated at room temperature for 10 min. Fluorescence polarization was then measured on Flexstation 3 (excitation wavelength: 480 nm; emission wavelength: 525 nm and cutoff at 515 nm).
A general note: Fluorescence polarisation rises when a labelled molecule tumbles more slowly, as on binding a larger partner.

Series [5] concerns the target T2, Recombinant human NPRA extracellular domain - human IgG1 Fc fusion (NPRA-Fc) (human, UniProt P16066 33-473).
T2 construct: extracellular domain; Expressed in Expi293 cells, Protein A purified; N1-L439 and C232 count on the mature NPRA, not on the precursor; also called Natriuretic Peptide Receptor A; not shown: Human IgG1 heavy chain, amino acids E216-G446 (IMGT.org, EU numbering), Accn; P01857.2
T2 sequence (looked up): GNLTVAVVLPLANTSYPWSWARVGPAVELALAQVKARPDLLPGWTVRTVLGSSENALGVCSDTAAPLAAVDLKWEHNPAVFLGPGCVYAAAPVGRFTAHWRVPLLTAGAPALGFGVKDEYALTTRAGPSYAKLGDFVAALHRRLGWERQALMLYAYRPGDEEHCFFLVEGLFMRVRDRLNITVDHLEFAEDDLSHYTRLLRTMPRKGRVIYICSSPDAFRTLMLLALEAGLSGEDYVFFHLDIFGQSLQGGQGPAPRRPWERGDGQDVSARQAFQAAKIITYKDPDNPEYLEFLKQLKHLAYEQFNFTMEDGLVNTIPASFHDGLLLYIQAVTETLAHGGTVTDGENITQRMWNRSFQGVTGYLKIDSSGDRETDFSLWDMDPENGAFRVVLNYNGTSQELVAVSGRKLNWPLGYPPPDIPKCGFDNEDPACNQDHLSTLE
In words: Fluorescence polarization, 5 nM CNP-F* probe with recombinant human NPRA-Fc.

For series [6], the target named is T1, Recombinant human NPRB extracellular …. In words: Fluorescence polarization, 5 nM CNP-F* with 50 nM human NPRB. On the procedure: as §2, §3

Consider `CCCCCCCCCCCCCCCC(=O)NCCOCCOCC(=O)NCCOCCOCC(=O)NCCOCCOCC(=O)N[C@H](CCCCN)C(=O)N[C@H](CCCCN)C(=O)O` [SEQ ID NO: 3, CH3(CH2)14(C═O)-Aeea-Aeea-Aeea-kk], for which the MTD in series [1] was not below 5 µmol/kg. Moreover, the “Ataxia** in n = 3” value in series [2] (ataxia is bolus dose limiting toxicity) is not below 5 µmol/kg. The “Swelling and/or Discoloration in n = 3” value in series [2] (dose at which sign was seen) was not below 3 µmol/kg. Also, in series [3], the “Anti-tumor effect vs anti-tigit Ab monotherapy” value is listed as “outperformed the anti-tumor effect of anti-tigit Ab as a monotherapy”.

B1: SEQ ID NO: 31, cationic alkyl modified CNP derivative CH3(CH2)14(C=O)-Aeea-Aeea-Aeea-Dap-Dap-GLSKGCFGLKLDRIGSQSGLGC (disulfide bond) (peptide)
peptide: Palmitoyl-[AEEA][AEEA][AEEA][Dap][Dap]GLSKGCFGLKLDRIGSQSGLGC
modifications: disulfide 11-27
notes: The entry holds non-natural residues (Aeea, Dap) before the 22 residues of the CNP part
In the case of B1, the binding result in series [4] is “binds”.

B2: CNP-F* probe (C-type natriuretic peptide bound to 5(6)-Carboxyfluorescein) (peptide)
peptide: {5(6)‑carboxyfluorescein}-GLSKGCFGLKLDRIGSMSGLGC
modifications: disulfide 6-22 (inferred)
notes: Made by solid phase synthesis; used at 5 nM in the fluorescence polarization assay; also called CNP probe; CNP based probe
Regarding B2, the binding result in series [5] was “no binding”; in series [6] it was “binds”.
